Measurements from the supplement of paper PMC10627819.

Legend:
B. subtilis 168 [1] = assay: fitness (endpoint OD595 vs no drug) (fraction); higher = more growth
Outline: (§1)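 With the first reading as background, OD595 was measured every 30 min for 14 h in 384-well plates kept at 37 °C and inoculated at OD595 0.01. TSB, LB Lennox or CY was the medium. Fitness is the optical density at the transition into stationary phase divided by the robust mean of no-drug control wells, with a cap of 1.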

S. pneumoniae D39V [2] = assay: as above
Outline: as §1

B. subtilis 168 [3] = assay: Bliss interaction score (quartile over a dose matrix) (fitness difference); higher = more antagonism (negative = synergy)
Outline: (§2)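 Quartiles summarise the Bliss score over technical, biological and donor/recipient replicates, where the score is observed minus expected fitness under a product model. Expected fitness uses single-drug values inferred from combination data. Fitness is OD595 at entry into stationary phase over the plate's robust no-drug mean, capped at 1.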

S. aureus DSM 20231 = assay: as above
Outline: as §2

S. aureus Newman = assay: as above
Outline: as §2

S. pneumoniae D39V [4] = assay: as above
Outline: as §2
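For Bliss interaction score (quartile over a dose matrix) in this document: first quartile when negative (synergy) and third quartile when positive (antagonism).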

CCC[C@@H]1C[C@@H](C(=O)N[C@@H]([C@H]2O[C@H](SC)[C@H](O)[C@@H](O)[C@H]2O)[C@H](C)Cl)N(C)C1 [Clindamycin] + CN(C)C(=O)C(CCN1CCC(O)(c2ccc(Cl)cc2)CC1)(c1ccccc1)c1ccccc1 [Loperamide]
fitness, one replicate
Conditions	first compound 0.0039 µg/mL	first compound 0.0078 µg/mL	first compound 0.015 µg/mL	first compound 0.0156 µg/mL	first compound 0.03 µg/mL	first compound 0.06 µg/mL
B. subtilis 168 [1], partner 25 µg/mL	0.924	0.814	–	0.793	–	–
B. subtilis 168 [1], partner 50 µg/mL	0.862	0.754	–	0.595	–	–
B. subtilis 168 [1], partner 100 µg/mL	0.53	0.385	–	0.259	–	–
S. pneumoniae D39V [2], partner 68.57 µg/mL	–	–	0.982	–	0.896	0.725

Conditions	fitness
B. subtilis 168 [1], first compound 0.0625 µg/mL, partner 25 µg/mL	0.577
B. subtilis 168 [1], first compound 0.0625 µg/mL, partner 50 µg/mL	0.0289
B. subtilis 168 [1], first compound 0.0625 µg/mL, partner 100 µg/mL	0.0293
B. subtilis 168 [1], first compound 0.125 µg/mL, partner 25 µg/mL	0.418
B. subtilis 168 [1], first compound 0.125 µg/mL, partner 50 µg/mL	0.0399
B. subtilis 168 [1], first compound 0.125 µg/mL, partner 100 µg/mL	0.0277
B. subtilis 168 [1], first compound 0.25 µg/mL, partner 25 µg/mL	0.254
B. subtilis 168 [1], first compound 0.25 µg/mL, partner 50 µg/mL	0.0473
B. subtilis 168 [1], first compound 0.25 µg/mL, partner 100 µg/mL	0.0404
S. pneumoniae D39V [2], first compound 0.0125 µg/mL, partner 20 µg/mL	0.82
S. pneumoniae D39V [2], first compound 0.0125 µg/mL, partner 40 µg/mL	0.859
S. pneumoniae D39V [2], first compound 0.0125 µg/mL, partner 80 µg/mL	0.858
S. pneumoniae D39V [2], first compound 0.015 µg/mL, partner 17.14 µg/mL	0.938
S. pneumoniae D39V [2], first compound 0.015 µg/mL, partner 34.28 µg/mL	0.946
S. pneumoniae D39V [2], first compound 0.025 µg/mL, partner 20 µg/mL	0.614
S. pneumoniae D39V [2], first compound 0.025 µg/mL, partner 40 µg/mL	0.62
S. pneumoniae D39V [2], first compound 0.025 µg/mL, partner 80 µg/mL	0.597
S. pneumoniae D39V [2], first compound 0.03 µg/mL, partner 17.14 µg/mL	0.778
S. pneumoniae D39V [2], first compound 0.03 µg/mL, partner 34.28 µg/mL	0.769
S. pneumoniae D39V [2], first compound 0.05 µg/mL, partner 20 µg/mL	0.316
S. pneumoniae D39V [2], first compound 0.05 µg/mL, partner 40 µg/mL	0.329
S. pneumoniae D39V [2], first compound 0.05 µg/mL, partner 80 µg/mL	0.285
S. pneumoniae D39V [2], first compound 0.06 µg/mL, partner 17.14 µg/mL	0.688
S. pneumoniae D39V [2], first compound 0.06 µg/mL, partner 34.28 µg/mL	0.639

Conditions	Bliss interaction score
B. subtilis 168 [3]	0.149
S. aureus DSM 20231	0.0957
S. aureus Newman	-0.0895
S. pneumoniae D39V [4]	0.2

CCC[C@@H]1C[C@@H](C(=O)N[C@@H]([C@H]2O[C@H](SC)[C@H](O)[C@@H](O)[C@H]2O)[C@H](C)Cl)N(C)C1 [Clindamycin] + C[C@H]1COc2c(N3CCN(C)CC3)c(F)cc3c(=O)c(C(=O)O)cn1c23 [Levofloxacin]
fitness, B. subtilis 168 [1], one replicate
Conditions	first compound 0.0039 µg/mL	first compound 0.0078 µg/mL	first compound 0.0156 µg/mL	first compound 0.0625 µg/mL	first compound 0.125 µg/mL	first compound 0.25 µg/mL
partner 0.001 µg/mL	–	–	–	0.715	0.554	0.391
partner 0.002 µg/mL	0.97	0.86	0.833	0.558	0.442	0.338
partner 0.0039 µg/mL	0.968	0.872	0.816	0.648	0.511	0.389
partner 0.0078 µg/mL	0.967	0.854	0.815	–	–	–

Conditions	fitness
B. subtilis 168 [1], first compound 0.0625 µg/mL, partner 0.0312 µg/mL	0.041
B. subtilis 168 [1], first compound 0.0625 µg/mL, partner 0.0625 µg/mL	0.038
B. subtilis 168 [1], first compound 0.0625 µg/mL, partner 0.125 µg/mL	0.0416
B. subtilis 168 [1], first compound 0.125 µg/mL, partner 0.0312 µg/mL	0.0414
B. subtilis 168 [1], first compound 0.125 µg/mL, partner 0.0625 µg/mL	0.0486
B. subtilis 168 [1], first compound 0.125 µg/mL, partner 0.125 µg/mL	0.0468
B. subtilis 168 [1], first compound 0.25 µg/mL, partner 0.0312 µg/mL	0.0473
B. subtilis 168 [1], first compound 0.25 µg/mL, partner 0.0625 µg/mL	0.0532
B. subtilis 168 [1], first compound 0.25 µg/mL, partner 0.125 µg/mL	0.0518
S. pneumoniae D39V [2], first compound 0.0125 µg/mL, partner 0.2 µg/mL	0.759
S. pneumoniae D39V [2], first compound 0.0125 µg/mL, partner 0.4 µg/mL	0.736
S. pneumoniae D39V [2], first compound 0.0125 µg/mL, partner 0.8 µg/mL	0.605
S. pneumoniae D39V [2], first compound 0.015 µg/mL, partner 0.1725 µg/mL	0.909
S. pneumoniae D39V [2], first compound 0.015 µg/mL, partner 0.345 µg/mL	0.865
S. pneumoniae D39V [2], first compound 0.015 µg/mL, partner 0.69 µg/mL	0.595
S. pneumoniae D39V [2], first compound 0.025 µg/mL, partner 0.2 µg/mL	0.478
S. pneumoniae D39V [2], first compound 0.025 µg/mL, partner 0.4 µg/mL	0.47
S. pneumoniae D39V [2], first compound 0.025 µg/mL, partner 0.8 µg/mL	0.39
S. pneumoniae D39V [2], first compound 0.03 µg/mL, partner 0.1725 µg/mL	0.822
S. pneumoniae D39V [2], first compound 0.03 µg/mL, partner 0.345 µg/mL	0.759
S. pneumoniae D39V [2], first compound 0.03 µg/mL, partner 0.69 µg/mL	0.546
S. pneumoniae D39V [2], first compound 0.05 µg/mL, partner 0.2 µg/mL	0.235
S. pneumoniae D39V [2], first compound 0.05 µg/mL, partner 0.4 µg/mL	0.189
S. pneumoniae D39V [2], first compound 0.05 µg/mL, partner 0.8 µg/mL	0.15
S. pneumoniae D39V [2], first compound 0.06 µg/mL, partner 0.1725 µg/mL	0.631
S. pneumoniae D39V [2], first compound 0.06 µg/mL, partner 0.345 µg/mL	0.601
S. pneumoniae D39V [2], first compound 0.06 µg/mL, partner 0.69 µg/mL	0.399

Conditions	Bliss interaction score
B. subtilis 168 [3]	0.0326
S. aureus DSM 20231	0.0785
S. aureus Newman	0.0891
S. pneumoniae D39V [4]	0.0885
